Source: US6649621B2, “Prevention or reversal of sensorineural hearing loss (SNHL) through biologic mechanisms” (The United States of America as represented by the …, priority 1997, dated 2003)
“Also recorded” adds a separate entry of the source.

What was measured:
[1] = test system: noise-induced cochlear damage; details: cited from earlier work
[2] = test system: noise induced hearing loss; assay: Oral rescue agent in an individual with noise induced hearing loss; type: in vivo, human; details: 70 mg/kg by mouth, then 35 mg/kg QID for seven days; one patient
From the text: FIG. 5 is a bar graph comparing the speech reception threshold values of an individual who suffered noise induced hearing loss before and after administration of an oral rescue agent. FIG. 6 is a bar graph comparing the word discrimination scores of an individual who suffered noise induced hearing loss before and after administration of an oral rescue agent. An Army Infantryman lost […] hearing protection in one ear during a live fire training evolution. […] received treatment in the form of ant initial dose of 70 mg/kg of L-N-acetyl cysteine (LNAC) by mouth followed by 35 mg/kg LNAC by mouth QID for seven days.

[3] = test system: inner and outer hair cells; assay: R-PIA on round window membrane, simulated M-16 impulse noise, missing hair cells; type: in vivo, Chinchilla; details: 10^-4 M on round window membrane 30 min, 50-salvo volleys, vs saline control ear
[4] = test system: noise induced permanent hearing loss; assay: R-PIA on round window membrane, impulse noise, frequency specific evoked potential threshold shifts; type: in vivo, Chinchilla; details: out to 20 days post-exposure
From the text: FIGS. 3 & 4 illustrate data from Chinchilla exposed to simulated M-16 rifle fire impulse noise (50-salvo volleys). These animals received R-PIA treatment as outlined above (by the application of a dilute (10^−4 molar) solution of R-PIA directly onto the round window membrane for thirty minutes) with saline as a control on the round window membrane of the opposite ear. FIGS. 3 and 4 depict the percentage of missing inner and outer hair cells quantified in the inner ears of animals euthanized after the noise exposure. […] The results of both these tests show the frequency specific evoked potential threshold shifts from the same Chinchilla prior to and after noise exposure (out to 20 days post-exposure).

[5] = test system: inner and outer hair cells; assay: R-PIA on round window membrane, chinchilla 4 kHz octave band noise, inner and outer hair cell losses; type: in vivo; details: 10^-4 M on round window membrane
From the text: FIG. 1 is a series of graphs which depicts our experimental work with R-PIA in a chinchilla model of SNHL. A 10^−4 M solution of R-PIA was placed on the round window membrane of chinchillas for thirty minutes and saline was placed as a control on round window membrane in the opposite-ear. After thirty minutes the fluids were removed, the surgical sites closed and the animals were exposed to 4 kHz octave band noise at 105 dB SPL for thirty minutes. […] The details of this study have been submitted and recently accepted for publication in a peer-reviewed journal (5).

chinchilla model of SNHL = assay: R-PIA on round window membrane, chinchilla 4 kHz octave band noise, evoked potential hearing thresholds; type: in vivo
From the text: FIG. 1 is a series of graphs which depicts our experimental work with R-PIA in a chinchilla model of SNHL. A 10^−4 M solution of R-PIA was placed on the round window membrane of chinchillas for thirty minutes and saline was placed as a control on round window membrane in the opposite-ear. After thirty minutes the fluids were removed, the surgical sites closed and the animals were exposed to 4 kHz octave band noise at 105 dB SPL for thirty minutes.

[6] = test system: idiopathic sensorineural hearing loss; assay: Treatment of individuals with sudden idiopathic sensorineural hearing loss (oral conventional therapy, then topical round window microcatheter); type: in vivo, human; details: one patient each
From the text: FIG. 7 is a bar graph comparing the speech reception threshold values of an individual who suffered an idiopathic sensorineural hearing loss before and after administration of a topical rescue agent.
FIG. 8 is a bar graph comparing the word discrimination scores of an individual who suffered an idiopathic sensorineural hearing loss before and after administration of a topical rescue agent.
FIG. 9 is a bar graph comparing the speech reception threshold values of another individual who suffered an idiopathic sensorineural hearing loss before and after administration of a topical rescue agent.
FIG. 10 is a bar graph comparing the word discrimination scores of another individual who suffered an idiopathic sensorineural hearing loss before and after administration of a topical rescue agent.
A Army Sergeant noted the sudden onset of a severe hearing loss and tinnitus in their left ear. They were initially given one week of conventional therapy with oral prednisone and a trial of close observation. They had no response to this treatment regimen and two weeks after experiencing the hearing loss they were treated with topical methylprednisolone. The topical methylprednisolone was administered in a round window microcatheter (IntraEar Corporation, Denver, Colo.) via a method developed by our group. The methylprednisolone was given in a concentration of 125 mg/ml. […]

For `CCCCS(=N)(=O)CCC(N)C(=O)O` (stereo not drawn) [BSO, buthionine sulfoximine], the “hair cell damage and hearing loss associated with noise exposure” value ([1]; inhibition of GSH synthesis) is listed as “enhances the hair cell damage and hearing loss associated with noise exposure”.

In the case of `CC(=O)N[C@@H](CS)C(=O)O` [LNAC, L-N-acetyl cysteine], the speech reception threshold [2] is reported as “complete recovery” and the word discrimination ability [2] is reported as “complete recovery”.

In the case of `C[C@H](Cc1ccccc1)Nc1ncnc2c1ncn2[C@@H]1O[C@H](CO)[C@@H](O)[C@H]1O` [R-PIA, R-N6-Phenylisopropyl adenosine], the “inner and outer hair cell loss” value [3] is reported as “significant reduction of inner and outer hair cell loss”, the permanent hearing loss ([4]; vs ears that received no treatment) is reported as “reduction of permanent hearing loss in R-PIA treated ears as compared to ears that received no treatment” and the permanent hearing loss ([4]; vs saline treated (control) ears, variety of frequencies) is reported as “reduction of permanent hearing loss in R-PIA treated ears as compared to saline treated (control) ears”. For the same molecule, the “inner hair cell losses” value ([5]; both conditions) was “minimal”, the “reduction in outer hair cell loss” value ([5]; vs saline control ears) was “fourfold reduction; also recorded: four-fold reduction” and the “permanent hearing threshold shift / permanent hearing loss” value (chinchilla model of SNHL; 10^-4 M on round window membrane 30 min, vs saline control ears) was “significantly less permanent hearing threshold shift in R-PIA treated ears compared to saline treated ears at 4, 8 and 16 kHz; also recorded: significant reduction in permanent hearing loss”. For the same molecule, the “recovery of hearing thresholds” value (chinchilla model of SNHL; 10^-4 M on round window membrane 30 min before 4 kHz octave band noise 105 dB SPL, days 0, 1, 2, 4 and 20, vs saline ear) was “faster and more complete recovery of hearing thresholds”.

In the case of `Oc1ncnc2[nH]ncc12` [allopurinol], the “cochlear action potential and cochlear microphonic threshold shifts” value ([1]; given before and during damaging noise exposure) is listed as “attenuate cochlear action potential and cochlear microphonic threshold shifts”.

For `C[C@]12C=CC(=O)C=C1CC[C@@H]1[C@@H]2C(=O)C[C@@]2(C)[C@H]1CC[C@]2(O)C(=O)CO` [prednisone], the “response of sudden hearing loss to conventional therapy” value [6] was “no response”.
